Article PMC2694832, “Pharmacokinetics, tissue distribution and mass balance of radiolabeled dihydroartemisinin in male rats” (Malaria Journal, 2009)

Legend:
[1] = Pharmacokinetic study of [^14C] DHA and unchanged DHA, single i.v. dose; assay type: in vivo, rats; details: for fourth peak concentration of radioactivity: 6 hours; for first peak concentration of radioactivity: at one minute
Procedure: Traditional PK studies involve intermittent blood sampling and subsequent determination of drug concentrations in whole blood and plasma. The Culex automated blood sampler provides a way for blood withdrawal at preprogrammed intervals, which is more accurate and less labor intensive. Six rats in the PK group were implanted with a jugular vein catheter under an isofluorane anesthaesia. After the surgery, rats were allowed to recover for 96 hours with free access to food and water. The rats were dosed single i.v. at 3 mg/ml/kg with [^14C] DHA (20 μCi/kg), which was prepared as a 25% cremophore/0.9% saline solution, through the tail vein. […] PK evaluation of [^14C] DHA in plasma and whole blood, as well as unchanged DHA in plasma was conducted in individual rats.
Total radioactivity in the collected tissue samples were quantified in duplicate. Weighed tissue aliquots (~0.2 g) were digested overnight in 2 ml of Solvable® tissue solubilizer (Perkin-Elmer Life and Analytical Sciences, Boston, MA) at 50°C. Coloured samples were decolourized by adding a maximum of 0.2 ml of 30% H2O2 for 30–60 minutes. Scintillation cocktail (Hyonic Fluor; Perkin-Elmer Boston. Massachusetts, USA) was then added and radioactivity determined in a Perkin-Elmer Tri-Carb 3100 TR scintillation spectrophotometer (Packard Instrument Co., Downers Grove, Illinois, USA). Faeces and intestinal contents were thoroughly homogenized before taking aliquots. Plasma was also analysed using the HPLC-ECD system to measure the concentration of unchanged DHA, as described by Li et al.
The analysis of cold DHA in plasma was performed according to a previously described HPLC method with the following modifications: for simultaneous determination of artemisinin and DHA (artemisinin as an internal standard), the Agilent Eclipse XDB-C18 column 5 μm (4.6 × 150 mm) was used with an isocratic mobile phase consisting of 40% acetonitrile: 60% ESA Acid Metabolite A (70–4835) in the reductive mode (-400 mV) for the quantification of DHA. Validation and reproducibility were evaluated and a lower limit of quantitation (LLQ) of 2.31 ng/ml for DHA was determined. The inter- and intra-day coefficient of variation for accuracy and precision were all within ± 10%.
For pharmacokinetics, the concentration-time data of [^14C] DHA in plasma and whole blood collected during the 192 hour treatment period was fitted to a three-compartment open model using a nonlinear, extended least-square fitting procedure (WinNonlin 5.2, Pharsight Corporation, Cary, NC) using weighted (1/concentration) nonlinear regression. The area under the curve (AUC) was determined by the linear trapezoidal rule with extrapolation to infinity based on the concentration of the last time point divided by the terminal rate constant. Extrapolations to time zero were done using zero concentration for intravenous dosing and using C0 values determined from the three-compartment model equation at time zero by i.v. route. Mean clearance rate (CL) was determined by dividing the dose by the AUCinf for i.v. injection. Mean residence time (MRT) was determined by dividing the area under the first moment curve (AUMC) by the AUC. The volume of distribution at steady state (Vss) was calculated as the product of CL and MRT. The concentration-time data of unchanged DHA was fitted to a two-compartment open model. Statistical analysis was conducted with Microsoft Excel using a Student's t-test for dependent samples to compare means of paired and unpaired samples between two groups.

[2] = Metabolic profile of [^14C] DHA (free, glucuronide and other conjugation fractions); assay type: in vivo, rats; details: for drug conjugation of the dose: rats i.v. 3 mg/20 μCi/kg
Procedure: About 2 ml of plasma and urine, and 1 – 2 g of faeces were used. Conjugates were hydrolyzed by glucuronidase (1000 FU/ml, Sigma-Aldrich, St. Louis, MO) at pH 4.6, 38°C for 24 hours. Active enzyme was checked by phenophthaleinglucuronide at the end of incubation. Urine and faecal samples were incubated for 48 hours and fresh enzyme was added after 24 hours. Total radioactivity in free, conjugated, and the remaining aqueous fractions were measured with liquid scintillation counters. Protein precipitates were dissolved in Solvable^R (200 mg in 1 ml) and counted for radioactivity after addition of scintillation cocktail.

rat plasma proteins = assay: Protein binding of [^14C] DHA, equilibrium dialysis, rat plasma; assay type: in vitro ADME; details: undiluted rat plasma, 0.15 to 57800 ng/ml, 37°C, five hours
Procedure: Human blood samples (five men and five women) were freshly obtained from subject volunteers at the Department of Clinical Trials, WRAIR. Rat samples were freshly collected from five male and five female rats. Equilibrium dialysis was performed using Teflon dialysis chambers and Diachema standard membranes as described by Li and Hümpel. The GD-4/90 Equilibrium Dialyzer (MM Developments, Ottawa) contained 20 micro-dialysis cells (2.0 ml/chamber). The molecular weight cutoff for dialysis membranes was 5000 D. Equilibrium was reached after four hours, when cells were rotated at 16 rpm and 37°C. Drugs were dissolved in plasma samples with various concentrations (0.15 – 57800 ng/ml) and all experiments were carried out for five hours.

[3] = blood radioactivity, three-compartment, rats single i.v. 3 mg/20 μCi/kg
[4] = blood radioactivity, rats single i.v. 3 mg/20 μCi/kg
[5] = plasma radioactivity, three-compartment, rats single i.v. 3 mg/20 μCi/kg
[6] = plasma radioactivity, rats single i.v. 3 mg/20 μCi/kg
[7] = plasma radioactivity, rats single i.v. 3 mg/20 μCi/kg, listed as 14C-Dihydroartemisinin
[8] = plasma, rats i.v. 3 mg/20 μCi/kg

C[C@@H]1CC[C@H]2[C@@H]([14CH3])C(O)O[C@@H]3O[C@@]4(C)CC[C@@H]1[C@]32OO4 (stereo partly shown) [[^14C] DHA, [16-^14C] DHA]
AUCinf. [1, 3]: 52690 ± 4971 ng·h/mL
CL [1, 3]: 0.7263 ± 0.5117 mL/min/kg
Cmax [1, 3]: 3105 ± 430 ng/mL
MRT [1, 3]: 148.57 ± 90.24 h
Vss [1, 3]: 10.792 ± 3.771 L/kg
t1/2 – alpha [1, 3]: 0.18 ± 0.02 h
t1/2 – beta [1, 3]: 19.68 ± 3.88 h
t1/2 – gamma (terminal) [1, 3]: 122.13 ± 8.73 h
Cmax at first peak [1, 4]: 3105 ± 430 ng/mL
Cmax at fourth peak [1, 4]: 833 ± 99 ng/mL
Cmax at second peak [1, 4]: 1557 ± 955 ng/mL
Cmax at third peak [1, 4]: 978 ± 164 ng/mL
Tmax [1, 4]: 1.2 min
time of first peak [1, 4]: 0.02 h
time of fourth peak [1, 4]: 6 h
time of second peak [1, 4]: 0.94 h
time of third peak [1, 4]: 2.00 h
time of fourth peak ([1]; blood radioactivity, rats single i.v. 3 mg/20 μCi/kg, listed as 14C-Dihydroartemisinin): 6.00 h
fourth peak concentration of radioactivity ([1]; blood, rats i.v. 3 mg/20 μCi/kg): 833 ng equivalents/ml
third peak concentration of radioactivity ([1]; blood, at two hours, rats i.v. 3 mg/20 μCi/kg): 978 ng equivalents/ml
AUCinf. [1, 5]: 21014 ± 2718 ng·h/mL
CL [1, 5]: 2.4105 ± 0.3028 mL/min/kg
MRT [1, 5]: 57.00 ± 2.84 h
Vss [1, 5]: 8.216 ± 0.828 L/kg
t1/2 – alpha [1, 5]: 0.21 ± 0.05 h
t1/2 – gamma (terminal) [1, 5]: 75.57 ± 7.34 h
time of second peak ([1]; plasma radioactivity, rats i.v. 3 mg/20 μCi/kg): 0.183 h
Cmax at fourth peak [1, 6]: 584 ± 65.5 ng/mL
Cmax at second peak [1, 6]: 2373 ± 195 ng/mL
Cmax at third peak [1, 6]: 863 ± 537 ng/mL
Tmax [1, 6]: 1.2 min
time of first peak [1, 6]: 0.02 h
time of fourth peak [1, 6]: 6 h
time of second peak [1, 6]: 0.19 h
time of third peak [1, 6]: 1.7 h
time of fourth peak [1, 7]: 6.00 h
time of third peak [1, 7]: 1.70 h
fourth peak concentration of radioactivity [1, 8]: 584 ng equivalents/ml
first peak concentration of radioactivity [1, 8]: 3,446 ng equivalents/g
second peak concentration of radioactivity [1, 8]: 2,373 ng equivalents/ml
third peak concentration of radioactivity [1, 8]: 863 ng equivalents/ml
total radioactivity in the plasma fraction relative to blood total ([1]; rats i.v.): less than 25%
duration of total radioactivity (long-lasting metabolites) ([1]; rats, plasma, urine and faeces, single i.v. 3 mg/20 μCi/kg): > 192 h
time of second peak ([1]; whole blood radioactivity, rats i.v. 3 mg/20 μCi/kg): 0.933 h
first peak concentration of radioactivity ([1]; whole blood, rats i.v. 3 mg/20 μCi/kg): 3,105 ng equivalents/g
ratio of conjugation to free ([2]; plasma, 10 minutes): 1.86
ratio of conjugation to free ([2]; plasma, 1 hour after dosing): 4.48
ratio of conjugation to free ([2]; plasma, 192 hours): 15.1
ratio of conjugation to free ([2]; plasma, within five minutes after dosing): 1.07
drug conjugation of the dose ([2]; plasma): up to 89%
drug conjugation of the dose ([2]; urine): ≤ 95%
plasma protein binding percentage (rat plasma proteins): 76–82%
